Measured values from patent US20110028455A1, “Indole-substituted 3-cyanopyridines As Kinase Inhibitors” (Wyeth LLC, priority 2007, published 2011).
Like-named read-outs stand apart in the source and are kept apart here.

Experiments:
[1] = Metabolic stability in rat liver microsomes; assay type: in vitro ADME; settings: 30 minutes incubation, remaining compound by HPLC
Experimental: In order to probe the metabolic stability of the compounds of the invention, a series of compounds were selected for stability testing in rat liver microsomes. A DMSO solution of each compound was incubated for 30 minutes in the presence of rat liver homogenate. The percentage of remaining compound was assessed by HPLC. An approximate half life was calculated from the percentage of remaining compound. Table II, below, illustrates a comparison of the in vitro microsomal half life of the selected compounds verses a series of related compounds lacking the C-6 alkyl group. […] It is generally accepted in the industry that improved in vitro metabolic stability frequently translates into improved in vivo metabolic stability. Improved metabolic stability may translate to increased in vivo exposure levels.

[2] = molecular target: T1, human PKCθ full length enzyme (Homo sapiens, UniProt Q04759); assay: PKCθ IMAP Assay; assay type: biochemical; settings: PKCθ 1 nM; ATP 6 μM; peptide 100 nM; DMSO 5%; 25 minutes at room temperature; FP readout; read-out: PKC-Theta Mean IC50
T1 construct: human PKCθ full length enzyme (Panvera Cat# P2996); purchased Panvera P2996
T1 sequence (Q04759 whole entry): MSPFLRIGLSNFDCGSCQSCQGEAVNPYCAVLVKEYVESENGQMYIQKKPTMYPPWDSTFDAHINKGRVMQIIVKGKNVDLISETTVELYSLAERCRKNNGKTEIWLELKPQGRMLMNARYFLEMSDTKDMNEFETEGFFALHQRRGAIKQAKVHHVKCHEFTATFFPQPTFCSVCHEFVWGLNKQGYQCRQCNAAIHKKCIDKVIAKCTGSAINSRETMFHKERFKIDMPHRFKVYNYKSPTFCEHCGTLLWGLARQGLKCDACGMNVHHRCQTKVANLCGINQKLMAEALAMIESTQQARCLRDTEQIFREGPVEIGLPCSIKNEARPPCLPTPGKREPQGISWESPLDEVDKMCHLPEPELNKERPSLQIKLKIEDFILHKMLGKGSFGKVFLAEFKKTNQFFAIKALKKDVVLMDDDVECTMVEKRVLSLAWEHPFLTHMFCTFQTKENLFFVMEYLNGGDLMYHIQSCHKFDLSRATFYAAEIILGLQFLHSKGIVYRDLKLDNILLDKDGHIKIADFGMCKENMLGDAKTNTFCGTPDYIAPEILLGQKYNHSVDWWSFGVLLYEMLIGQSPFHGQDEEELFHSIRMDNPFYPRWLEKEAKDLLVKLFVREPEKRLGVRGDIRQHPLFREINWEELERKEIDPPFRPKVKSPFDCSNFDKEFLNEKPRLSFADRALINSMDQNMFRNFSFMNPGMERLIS
Experimental: The materials used include the following: human PKCθ full length enzyme (Panvera Cat# P2996); substrate peptide: 5FAM-RFARKGSLRQKNV-OH (Molecular Devices, RP7032); ATP (Sigma Cat # A2383); DTT (Pierce, 20291); 5× kinase reaction buffer (Molecular Devices, R7209); 5× binding buffer A (Molecular Devices, R7282), 5× binding buffer B (Molecular Devices, R7209); IMAP Beads (Molecular Devices, R7284); and 384-well plates (Corning Costar, 3710).
The reaction buffer was prepared by diluting the 5× stock reaction buffer and adding DTT to obtain a concentration of 3.0 mM. The binding buffer was prepared by diluting the 5× binding buffer A. A master mix solution was prepared using a 90% dilution of the reaction buffer containing 2×ATP (12 uM) and 2× peptide (200 nm). Compounds were diluted in DMSO to 20× of the maximum concentration for the IC50 measurement. 27 μl of the master mix solution for each IC50 curve was added to the first column in a 384-well plate and 3 μl of 20× compound in DMSO was added to each well.
The final concentration of compound was 2× and 10% DMSO. DMSO was added to the rest of the master mix to increase the concentration to 10%. 10 μl of the master mix containing 10% DMSO was added to the rest of the wells on the plate except the 2nd column. 20 μl was transferred from the first column to the 2nd column. The compounds were serially diluted in 2:1 ratio starting from the 2nd column. A 2×(2 nM) PKCθ solution was made in the reaction buffer. 10 μl of the PKCθ solution was added to every well to achieve these final concentrations: PKCθ-1 nM; ATP-6 μM; peptide-100 nM; DMSO-5%. Samples were incubated for 25 minutes at room temperature. The binding reagent was prepared by diluting the beads in 1× binding buffer to 800:1. 50 μl of the binding reagent was added to every well and incubated for 20 minutes. FP was measured using Envision2100 (PerkinElmer Life Sciences). Wells with no ATP and wells with no enzyme were used as controls.

[3] = related compounds lacking the C-6 alkyl group, read-out: Rat Microsome Stability of 6-H cyanopyridine Compounds (approximate half life)
[4] = 6-Me compounds of the invention, read-out: Rat Microsome Stability of 6-Me cyanopyridine Compounds (approximate half life)

half-life [1, 3] | IC50 [2] | half-life [1, 4] | Molecule | other results
10 min |  |  | Cc1c(Nc2c(C#N)cncc2-c2ccc(OCCN3CCC(N4CCOCC4)CC3)cc2)ccc2[nH]ccc12 | 
5 min |  |  | Cc1c(Nc2c(C#N)cncc2-c2ccc(OCCN3CCC(c4ccccc4)CC3)cc2)ccc2[nH]ccc12 | 
3 min |  |  | Cc1c(Nc2c(C#N)cncc2-c2ccc(OCCNCc3ccccn3)cc2)ccc2[nH]ccc12 | 
22 min |  |  | Cc1c(Nc2c(C#N)cncc2-c2ccc(OCCNCCCn3ccnc3)cc2)ccc2[nH]ccc12 | 
6 min |  |  | Cc1c(Nc2c(C#N)cncc2-c2ccc(OCCNCc3ccccc3)cc2)ccc2[nH]ccc12 | 
> 30 min |  |  | Cc1c(Nc2c(C#N)cncc2-c2ccc(OCCN3CCN(CCN(C)C)CC3)cc2)ccc2[nH]ccc12 | 
11 min |  |  | Cc1c(Nc2c(C#N)cncc2-c2ccc(OCCN3CCN(CCO)CC3)cc2)ccc2[nH]ccc12 | 
8 min |  |  | CCN1CCN(CCOc2ccc(-c3cncc(C#N)c3Nc3ccc4[nH]ccc4c3C)cc2)CC1 | 
> 30 min |  |  | Cc1c(Nc2c(C#N)cncc2-c2ccc(OCCN3CCC(N4CCCC4)CC3)cc2)ccc2[nH]ccc12 | 
8 min |  |  | Cc1c(Nc2c(C#N)cncc2-c2ccc(OCCN3CCOCC3)cc2)ccc2[nH]ccc12 | 
> 30 min |  |  | Cc1c(Nc2c(C#N)cncc2-c2ccc(OCCNC3CCN(C)CC3)cc2)ccc2[nH]ccc12 | 
> 30 min |  |  | Cc1c(Nc2c(C#N)cncc2-c2ccc(OCCNCC3CCN(C)CC3)cc2)ccc2[nH]ccc12 | 
21 min |  |  | Cc1c(Nc2c(C#N)cncc2-c2ccc(OCCN3CCCC3)cc2)ccc2[nH]ccc12 | 
14 min |  |  | Cc1c(Nc2c(C#N)cncc2-c2ccc(OCCN3CCN(C)CC3)cc2)ccc2[nH]ccc12 | 
7 min |  |  | CCOCCNCCOc1ccc(-c2cncc(C#N)c2Nc2ccc3[nH]ccc3c2C)cc1 | 
 | 151 nM |  | COc1ccc(-c2c(C)ncc(C#N)c2Nc2cccc3[nH]ccc23)cc1OC [Example 8, 5-(3,4-dimethoxyphenyl)-4-(1H-indol-4-ylamino)-6-methylnicotinonitrile] | melting point: 182 to 183 °C
 | 67 nM |  | COc1ccc(-c2c(C)ncc(C#N)c2Nc2ccc3[nH]ccc3c2C)cc1OC [Example 9, 5-(3,4-dimethoxyphenyl)-6-methyl-4-[(4-methyl-1H-indol-5-yl)amino]nicotinonitrile] | melting point: 202 to 203 °C

half-life [1, 3] | IC50 [2] | half-life [1, 4] | Molecule | other results
 | 113 nM |  | Cc1ncc(C#N)c(Nc2cccc3[nH]ccc23)c1-c1cc2ccccc2o1 [Example 10, 5-(1-benzofuran-2-yl)-4-(1H-indol-4-ylamino)-6-methylnicotinonitrile] | melting point: 192 to 193 °C
 | 13 nM |  | Cc1ncc(C#N)c(Nc2ccc3[nH]ccc3c2C)c1-c1cc2ccccc2o1 [Example 11, 5-(1-benzofuran-2-yl)-6-methyl-4-[(4-methyl-1H-indol-5-yl)amino]nicotinonitrile] | melting point: 154 to 155 °C
 | 30 nM |  | Cc1ncc(C#N)c(Nc2ccc3[nH]ccc3c2C)c1-c1ccc(OCCCl)cc1 [Example 12, 5-[4-(2-chloroethoxy)phenyl]-6-methyl-4-[(4-methyl-1H-indol-5-yl)amino]nicotinonitrile] | melting point: 200 to 201 °C
 | 150 nM |  | Cc1ncc(C#N)c(Nc2cccc3[nH]ccc23)c1-c1ccc(OCCCl)cc1 [Example 13, 5-[4-(2-chloroethoxy)phenyl]-4-(1H-indol-4-ylamino)-6-methylnicotinonitrile] | melting point: 185 to 186 °C
 | 12 nM |  | Cc1ncc(C#N)c(Nc2ccc3[nH]ccc3c2C)c1-c1cc2cc(C=O)ccc2o1 [Example 15, 5-(5-formyl-1-benzofuran-2-yl)-6-methyl-4-[(4-methyl-1H-indol-5-yl)amino]nicotinonitrile] | melting point: 168 to 169 °C
 | 46 nM | > 30 min | CCOCCNCCOc1ccc(-c2c(C)ncc(C#N)c2Nc2ccc3[nH]ccc3c2C)cc1 [Example 19, 5-(4-{2-[(2-ethoxyethyl)amino]ethoxy}phenyl)-6-methyl-4-[(4-methyl-1H-indol-5-yl)amino]nicotinonitrile] | 
 | 25 nM | > 30 min | Cc1ncc(C#N)c(Nc2ccc3[nH]ccc3c2C)c1-c1ccc(OCCN2CCCC2)cc1 [Example 20, 6-methyl-4-[(4-methyl-1H-indol-5-yl)amino]-5-[4-(2-pyrrolidin-1-ylethoxy)phenyl]nicotinonitrile] | 
 | 9 nM | > 30 min | Cc1ncc(C#N)c(Nc2ccc3[nH]ccc3c2C)c1-c1ccc(OCCNC2CCN(C)CC2)cc1 [Example 22, 6-methyl-4-[(4-methyl-1H-indol-5-yl)amino]-5-(4-{2-[(1-methylpiperidin-4-yl)amino]ethoxy}phenyl)nicotinonitrile] | 
 | 8 nM | > 30 min | Cc1ncc(C#N)c(Nc2ccc3[nH]ccc3c2C)c1-c1ccc(OCCNCC2CCN(C)CC2)cc1 [Example 23, 6-methyl-4-[(4-methyl-1H-indol-5-yl)amino]-5-[4-(2-{[(1-methylpiperidin-4-yl)methyl]amino}ethoxy)phenyl]nicotinonitrile] | 
 | 272 nM | 20 min | Cc1ncc(C#N)c(Nc2ccc3[nH]ccc3c2C)c1-c1ccc(OCCN2CCC(c3ccccc3)CC2)cc1 [Example 29, 6-methyl-4-[(4-methyl-1H-indol-5-yl)amino]-5-{4-[2-(4-phenylpiperidin-1-yl)ethoxy]phenyl}nicotinonitrile] | 
 | 124 nM | 17 min | Cc1ncc(C#N)c(Nc2ccc3[nH]ccc3c2C)c1-c1ccc(OCCN2CCOCC2)cc1 [Example 30, 6-methyl-4-[(4-methyl-1H-indol-5-yl)amino]-5-[4-(2-morpholin-4-ylethoxy)phenyl]nicotinonitrile] | 
 | 44 nM | > 30 min | CCN1CCN(CCOc2ccc(-c3c(C)ncc(C#N)c3Nc3ccc4[nH]ccc4c3C)cc2)CC1 [Example 33, 5-{4-[2-(4-ethylpiperazin-1-yl)ethoxy]phenyl}-6-methyl-4-[(4-methyl-1H-indol-5-yl)amino]nicotinonitrile] | 
 | 44 nM | > 30 min | Cc1ncc(C#N)c(Nc2ccc3[nH]ccc3c2C)c1-c1ccc(OCCN2CCN(CCO)CC2)cc1 [Example 35, 5-(4-{2-[4-(2-hydroxyethyl)piperazin-1-yl]ethoxy}phenyl)-6-methyl-4-[(4-methyl-1H-indol-5-yl)amino]nicotinonitrile] | 
 | 33 nM | > 30 min | Cc1ncc(C#N)c(Nc2ccc3[nH]ccc3c2C)c1-c1ccc(OCCN2CCN(CCN(C)C)CC2)cc1 [Example 36, 5-[4-(2-{4-[2-(dimethylamino)ethyl]piperazin-1-yl}ethoxy)phenyl]-6-methyl-4-[(4-methyl-1H-indol-5-yl)amino]nicotinonitrile] | 
 | 14 nM | > 30 min | Cc1ncc(C#N)c(Nc2ccc3[nH]ccc3c2C)c1-c1ccc(OCCNCCCn2ccnc2)cc1 [Example 38, 5-[4-(2-{[3-(1H-imidazol-1-yl)propyl]amino}ethoxy)phenyl]-6-methyl-4-[(4-methyl-1H-indol-5-yl)amino]nicotinonitrile] | 
 | 73 nM | 14 min | Cc1ncc(C#N)c(Nc2ccc3[nH]ccc3c2C)c1-c1ccc(OCCNCc2ccccc2)cc1 [Example 39, 5-{4-[2-(benzylamino)ethoxy]phenyl}-6-methyl-4-[(4-methyl-1H-indol-5-yl)amino]nicotinonitrile] | 
 | 29 nM | 13 min | Cc1ncc(C#N)c(Nc2ccc3[nH]ccc3c2C)c1-c1ccc(OCCNCc2ccccn2)cc1 [Example 40, 6-methyl-4-[(4-methyl-1H-indol-5-yl)amino]-5-(4-{2-[(pyridin-2-ylmethyl)amino]ethoxy}phenyl)nicotinonitrile] | 

Molecule | half-life [1, 3] | IC50 [2] | half-life [1, 4] | other results
5-{4-[2-(4-cyclopentylpiperazin-1-yl)ethoxy]phenyl}-6-methyl-4-[(4-methyl-1H-indol-5-yl)amino]nicotinonitrile [Example 37] |  | 30 nM |  | Rat Microsome Stability of 6-Me cyanopyridine Compounds (approximate half life) ([1]; 6-Me compounds of the invention): >30 min
